What was measured:
cocklebur = experiment: Test B pre/postemergence cocklebur; assay type: in vivo, Xanthium strumarium
Outline: (§1)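 Herbicidal effect was estimated by eye on a ten-point control scale after plants spent twelve to sixteen days in a greenhouse following soil or foliar treatment. Foliar sprays targeted plants at one to four leaves; all doses were formulated in a non-phytotoxic solvent with surfactant.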

morningglory = experiment: Test B pre/postemergence morningglory; assay type: in vivo, Ipomoea hederacea
Outline: as §1

smallflower flatsedge = experiment: Test B flood test smallflower flatsedge; assay type: in vivo, Cyperus difformis
Outline: (§2)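 Flood test on plants grown to the 2-leaf stage; treated plants kept in greenhouse twelve to sixteen days, then visually rated against controls on a 0 (no effect) to 10 (complete control) scale.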

rice = experiment: Test B flood test rice; assay type: in vivo, Oryza sativa
Outline: as §2

surinam grass = experiment: Test B pre/postemergence surinam grass; assay type: in vivo, Brachiaria decumbens
Outline: as §1

duck salad = experiment: Test B flood test duck salad; assay type: in vivo, Heteranthera limosa
Outline: as §2

corn = experiment: Test B pre/postemergence corn; assay type: in vivo, Zea mays
Outline: as §1

pigweed = experiment: Test B pre/postemergence pigweed; assay type: in vivo, Amaranthus retroflexus
Outline: as §1

soybean = experiment: Test B pre/postemergence soybean; assay type: in vivo, Glycine max
Outline: as §1

sugar beet = experiment: Test B pre/postemergence sugar beet; assay type: in vivo, Beta vulgaris
Outline: as §1

wild oat = experiment: Test B pre/postemergence wild oat; assay type: in vivo, Avena fatua
Outline: as §1

crabgrass = experiment: Test B pre/postemergence crabgrass; assay type: in vivo, Digitaria sanguinalis
Outline: as §1

rape = experiment: Test B pre/postemergence rape; assay type: in vivo, Brassica napus
Outline: as §1

bamyardgrass = experiment: Test B flood test barnyardgrass; assay type: in vivo, Echinochloa crus-galli
Outline: as §2

bedstraw = experiment: Test B pre/postemergence bedstraw; assay type: in vivo, Galium aparine
Outline: as §1

velvetleaf = experiment: Test B pre/postemergence velvetleaf; assay type: in vivo, Abutilon theophrasti
Outline: as §1

[1] = Postemergence, Rate 62 g/ha, scale 0 to 10, 0 is no effect, 10 is complete control
[2] = Postemergence, Rate 250 g/ha, scale 0 to 10, 0 no effect, 10 complete control
[3] = Preemergence, Rate 62 g/ha, scale 0 to 10 (0 no effect, 10 complete control)
[4] = Preemergence, Rate 125 g/ha, scale 0 to 10 (0 no effect, 10 complete control)
[5] = Preemergence, Rate 250 g/ha, scale of 0 to 10 where 0 is no effect and 10 is complete control
[6] = Preemergence, Rate 500 g/ha, scale 0 (no effect) to 10 (complete control)
[7] = Rate 125 g/ha, Postemergence, scale 0 to 10, 0 no effect, 10 complete control
[8] = Rate 500 g/ha, Postemergence, scale 0 to 10, 0 no effect, 10 complete control
[9] = Rate 125 g/ha, Postemergence section (flood test species), scale 0 to 10, 0 no effect, 10 complete control
[10] = Rate 500 g/ha, listed under Postemergence (flood test species), scale 0 to 10, 0 no effect, 10 complete control
[11] = flood test, listed under Postemergence, Rate 250 g/ha, scale 0 to 10, 0 no effect, 10 complete control

Structure (SMILES): Cc1cccc(C(C)C)c1-n1c(=O)on(C(=O)N(c2ccc(Cl)cc2)C(C)C)c1=O [Compound 64]
- Cocklebur plant response rating (cocklebur; [1]): 0
- Cocklebur plant response rating (cocklebur; [2]): 0
- Cocklebur plant response rating (cocklebur; [3]): 0
- Plant response rating, Cocklebur (cocklebur; [4]): 0
- Plant response rating, Cocklebur (cocklebur; [5]): 0
- Cocklebur plant response rating (cocklebur; [6]): 0
- Cocklebur plant response rating (cocklebur; [7]): 0
- Cocklebur plant response rating (cocklebur; [8]): 0
- Morningglory plant response rating (morningglory; [1]): 0
- Morningglory plant response rating (morningglory; [2]): 0
- Morningglory plant response rating (morningglory; [3]): 0
- Plant response rating, Morningglory (morningglory; [4]): 0
- Plant response rating, Morningglory (morningglory; [5]): 0
- Morningglory plant response rating (morningglory; [6]): 0
- Morningglory plant response rating (morningglory; [7]): 0
- Morningglory plant response rating (morningglory; [8]): 0
- S. Flatsedge plant response rating (smallflower flatsedge; [1]): 0
- S. Flatsedge plant response rating (smallflower flatsedge; [9]): 0
- S. Flatsedge plant response rating (smallflower flatsedge; [10]): 0
- S. Flatsedge plant response rating (smallflower flatsedge; [11]): 0
- Rice plant response rating (rice; [1]): 0
- Rice plant response rating (rice; [9]): 0
- Rice plant response rating (rice; [10]): 0
- Rice plant response rating (rice; [11]): 0
- B. signalgrass plant response rating (surinam grass; [1]): 0
- B. signalgrass plant response rating (surinam grass; [2]): 0
- B. signalgrass plant response rating (surinam grass; [3]): 0
- Plant response rating, B. signalgrass (surinam grass; [4]): 0
- Plant response rating, B. signalgrass (surinam grass; [5]): 0
- B. signalgrass plant response rating (surinam grass; [6]): 0
- B. signalgrass plant response rating (surinam grass; [7]): 0
- B. signalgrass plant response rating (surinam grass; Rate 500 g/ha, Postemergence, scale of 0 to 10 where 0 is no effect and 10 is complete control): 0
- Ducksalad plant response rating (duck salad; [1]): 0
- Ducksalad plant response rating (duck salad; [9]): 0
- Ducksalad plant response rating (duck salad; [10]): 0
- Ducksalad plant response rating (duck salad; [11]): 0
- Corn plant response rating (corn; [1]): 0
- Corn plant response rating (corn; [2]): 0
- Corn plant response rating (corn; [3]): 0
- Plant response rating, Corn (corn; [4]): 0
- Plant response rating, Corn (corn; [5]): 0
- Corn plant response rating (corn; [6]): 0
- Corn plant response rating (corn; [7]): 0
- Corn plant response rating (corn; [8]): 0
- Redroot pigweed plant response rating (pigweed; [1]): 0
- Redroot pigweed plant response rating (pigweed; [2]): 0
- Redroot pigweed plant response rating (pigweed; [3]): 0
- Plant response rating, Redroot pigweed (pigweed; [4]): 0
- Plant response rating, Redroot pigweed (pigweed; [5]): 0
- Redroot pigweed plant response rating (pigweed; [6]): 0
- Redroot pigweed plant response rating (pigweed; [7]): 0
- Redroot pigweed plant response rating (pigweed; [8]): 0
- Soybean plant response rating (soybean; [1]): 0
- Soybean plant response rating (soybean; [2]): 0
- Soybean plant response rating (soybean; [3]): 0
- Plant response rating, Soybean (soybean; [4]): 0
- Plant response rating, Soybean (soybean; [5]): 0
- Soybean plant response rating (soybean; [6]): 0
- Soybean plant response rating (soybean; [7]): 0
- Soybean plant response rating (soybean; [8]): 1
- Sugarbeets plant response rating (sugar beet; [1]): 0
- Sugarbeets plant response rating (sugar beet; [2]): 0
- Sugarbeets plant response rating (sugar beet; [3]): 0
- Plant response rating, Sugarbeets (sugar beet; [4]): 0
- Plant response rating, Sugarbeets (sugar beet; [5]): 0
- Sugarbeets plant response rating (sugar beet; [6]): 0
- Sugarbeets plant response rating (sugar beet; [7]): 0
- Sugarbeets plant response rating (sugar beet; [8]): 0
- Wild oats plant response rating (wild oat; [1]): 0
- Wild oats plant response rating (wild oat; [2]): 0
- Wild oats plant response rating (wild oat; [3]): 0
- Plant response rating, Wild oats (wild oat; [4]): 0
- Plant response rating, Wild oats (wild oat; [5]): 0
- Wild oats plant response rating (wild oat; [6]): 0
- Wild oats plant response rating (wild oat; [7]): 0
- Wild oats plant response rating (wild oat; [8]): 0
- Crabgrass plant response rating (crabgrass; [1]): 0
- Crabgrass plant response rating (crabgrass; [2]): 0
- Crabgrass plant response rating (crabgrass; [3]): 0
- Plant response rating, Crabgrass (crabgrass; [4]): 0
- Plant response rating, Crabgrass (crabgrass; [5]): 2
- Crabgrass plant response rating (crabgrass; [6]): 3
- Crabgrass plant response rating (crabgrass; [7]): 0
- Crabgrass plant response rating (crabgrass; [8]): 0
- Rape plant response rating (rape; [1]): 0
- Rape plant response rating (rape; [2]): 0
- Rape plant response rating (rape; [3]): 0
- Plant response rating, Rape (rape; [4]): 0
- Plant response rating, Rape (rape; [5]): 0
- Rape plant response rating (rape; [6]): 0
- Rape plant response rating (rape; [7]): 0
- Rape plant response rating (rape; [8]): 0
- Barnyardgrass plant response rating (bamyardgrass; [1]): 0
- Barnyardgrass plant response rating (bamyardgrass; [9]): 0
- Barnyardgrass plant response rating (bamyardgrass; [10]): 0
- Barnyardgrass plant response rating (bamyardgrass; [11]): 0
- Bedstraw plant response rating (bedstraw; [1]): 0
- Bedstraw plant response rating (bedstraw; [2]): 0
- Bedstraw plant response rating (bedstraw; [3]): 0
- Plant response rating, Bedstraw (bedstraw; [4]): 0
- Plant response rating, Bedstraw (bedstraw; [5]): 0
- Bedstraw plant response rating (bedstraw; [7]): 0
- Bedstraw plant response rating (bedstraw; [8]): 0
- Velvetleaf plant response rating (velvetleaf; [1]): 0
- Velvetleaf plant response rating (velvetleaf; [2]): 0
- Velvetleaf plant response rating (velvetleaf; [3]): 0
- Plant response rating, Velvetleaf (velvetleaf; [4]): 0
- Plant response rating, Velvetleaf (velvetleaf; [5]): 0
- Velvetleaf plant response rating (velvetleaf; [6]): 0
- Velvetleaf plant response rating (velvetleaf; [7]): 0
- Velvetleaf plant response rating (velvetleaf; [8]): 0

Source: US6737383B1, “Herbicidal oxadiazolidines” (priority 1999, dated 2004)
